Source: PMC10539501 (Nature Communications, 2023)
Starred links: 1 amine or outer side, 2 acyl side, 3 side chain; linkers in the order of their positions; H or OH if unused. Non-standard residues stand in square brackets, D forms with d. Residues, ends and D or L forms follow the SMILES beside them. X20 = C[C@H](NC(=S)[C@@H](C)N[*:1])C(=O)[*:2]

Legend:
physchem = conditions: pH 7.4
[1] = Octanol-water distribution coefficient (logD7.4); conditions: octanol/water, pH 7.4

| SMILES | logD (physchem) | logD [1] |
| --- | --- | --- |
| NCCCC[C@H](NC(=S)[C@@H](N)Cc1ccccc1)C(=O)O [1a] | -2.12 | – |
| CN(C(=O)[C@@H](N)Cc1ccccc1)[C@@H](CCCCN)C(=O)O [1b] | -1.95 | – |
| N[C@@H](Cc1ccccc1)C(=S)N[C@@H](CCC(=O)O)C(=O)O [2a] | -1.45 | – |
| CN(C(=O)[C@@H](N)Cc1ccccc1)[C@@H](CCC(=O)O)C(=O)O [2b] | -2.14 | – |
| N[C@@H](Cc1ccccc1)C(=S)NCC(=O)O [3a] | -1.61 | – |
| CN(CC(=O)O)C(=O)[C@@H](N)Cc1ccccc1 [3b] | -1.73 | – |
| C[C@H](NC(=S)[C@@H](N)Cc1ccccc1)C(=O)O [4a] | -1.76 | – |
| C[C@@H](C(=O)O)N(C)C(=O)[C@@H](N)Cc1ccccc1 [4b] | -1.76 | – |
| CC(C)[C@H](NC(=S)[C@@H](N)Cc1ccccc1)C(=O)O [5a] | -0.92 | – |
| CC(C)[C@@H](C(=O)O)N(C)C(=O)[C@@H](N)Cc1ccccc1 [5b] | -0.62 | – |

Now from value to molecule:

| logD (physchem) | logD [1] | SMILES |
| --- | --- | --- |
| -0.79 | – | CSCC[C@H](NC(=S)[C@@H](N)Cc1ccccc1)C(=O)O [6a] |
| -1.05 | – | CSCC[C@@H](C(=O)O)N(C)C(=O)[C@@H](N)Cc1ccccc1 [6b] |
| 0.13 | – | N[C@@H](Cc1ccccc1)C(=S)N[C@@H](Cc1c[nH]c2ccccc12)C(=O)O [7a] |
| 0.21 | – | CN(C(=O)[C@@H](N)Cc1ccccc1)[C@@H](Cc1c[nH]c2ccccc12)C(=O)O [7b] |
| – | -0.32 | C[C@@H]1NC(=O)[C@H](C)NC(=O)[C@H](C)NC(=S)[C@@H](C)NC(=O)[C@H](C)NC1=O [8a] |
| – | -0.14 | C[C@@H]1NC(=O)[C@H](C)NC(=S)[C@H](C)NC(=O)[C@@H](C)NC(=O)[C@H](C)NC1=O [8b] |
| – | -0.19 | C[C@@H]1NC(=O)[C@H](C)NC(=S)[C@H](C)NC(=O)[C@H](C)NC(=O)[C@@H](C)NC1=O [8c] |
| – | -0.23 | C[C@@H]1NC(=O)[C@H](C)NC(=O)[C@@H](C)NC(=O)[C@H](C)NC(=S)[C@H](C)NC1=O [8d] |
| – | -0.14 | C[C@@H]1NC(=O)[C@H](C)NC(=O)[C@@H](C)NC(=S)[C@H](C)NC(=O)[C@H](C)NC1=O [8e] |
| – | -0.67 | C[C@@H]1NC(=O)[C@H](C)NC(=O)[C@H](C)NC(=S)[C@@H](C)NC(=O)[C@H](C)NC(=O)[C@H](C)NC1=O [9a] (cyclo([X20]AAAA)) |
| – | -0.7 | C[C@@H]1NC(=O)[C@H](C)NC(=O)[C@H](C)NC(=S)[C@H](C)NC(=O)[C@@H](C)NC(=O)[C@H](C)NC1=O [9b] |
| – | -0.59 | C[C@@H]1NC(=O)[C@H](C)NC(=S)[C@H](C)NC(=O)[C@H](C)NC(=O)[C@@H](C)NC(=O)[C@H](C)NC1=O [9c] |
| – | -0.67 | C[C@@H]1NC(=O)[C@H](C)NC(=O)[C@@H](C)NC(=O)[C@H](C)NC(=O)[C@H](C)NC(=S)[C@H](C)NC1=O [9d] |
